From patent publication US8569297B2, “1-benzyl-3-hydroxymethylindazole derivatives and use thereof in the treatment of diseases based on the expression of MCP-1 and CX3CR1” (Aziende Chimiche Riunite Angelini Francesco A.C.R.A.F. …, priority 2008, dated 2013)

Tests used:
MCP-1 [1] = assay: Analysis of the gene expression of MCP-1 in a human monocyte line (real-time RT-PCR); format: cell-based; settings: 150 μM (maximum soluble concentration), 1 hour pre-incubation; MonoMac6 cells stimulated with LPS 100 ng/ml for 4 hours
Procedure: The capacity of compound 1 to inhibit the expression of MCP-1 by lipopolysaccharide (LPS)-stimulated MonoMac6 cells was evaluated. The cells were placed in 96-well plates at a concentration of 50 000 cells/well. The compound was tested at the maximum soluble concentration given in Table 1 (in the range 30-300 μM) and incubated for 1 hour. The cells were then stimulated with LPS (100 ng/ml) for 4 hours.
(§1) The total RNA was extracted from the cell pellet using the RNeasy mini kit (Qiagen), reverse-transcribed with the TaqMan Reverse transcription reagents synthesis kit (Applied Biosystems) and the cDNA obtained was used for the real-time PCR reaction. The amplification was obtained in 96-well plates using the ABI Prism 7000 sequence detection system (Applied Biosystems), by applying the following temperature profile: 50° C. for 2 minutes, 95° C. for 10 minutes and 45 cycles at 95° C. for 15 seconds and 60° C. for 1 minute. For the amplification, a set of primers and probe specific for human MCP-1 was used (Applied Biosystems, RefSeq NM_002982.3). […] Once the reaction had taken place, the fluorescence data were analysed using the ABI Prism 7000 SDS software, by calculating the threshold cycle (Ct) for each sample and subsequently performing a relative quantification via the ΔΔCt method.
The results obtained, expressed as a percentage of inhibition, are collated in Table 1 below.

MCP-1 [2] = assay: Measurement of the production of MCP-1 in a human monocyte line (ELISA); format: cell-based; settings: MONO-MAC-6, 150 μM (maximum soluble concentration), 1 hour pre-incubation, MonoMac6 cells stimulated with LPS 100 ng/ml for 20 hours, supernatant ELISA, read-out: % inhibition of LPS-induced MCP-1 production (produced protein)
Procedure: The capacity of the compounds 1 and 2 to inhibit the expression of the protein MCP-1 by lipopolysaccharide (LPS)-stimulated MonoMac6 cells was evaluated. The cells were placed in 96-well plates at a concentration of 50 000 cells/well. The compounds were tested at the maximum soluble concentration given in Table 2 (in the range 30-300 μM) and incubated for 1 hour. The cells were then stimulated with LPS (100 ng/ml) for 20 hours.
The amount of MCP-1 produced was measured in the supernatants, suitably diluted with buffer, by means of an immunoenzymatic test (ELISA) using a commercial kit (ELISA MCP-1/JE, R&D Systems).
The results obtained, expressed as a percentage of inhibition, are collated in Table 2 below.

CX3CR1 = assay: Analysis of the gene expression of CX3CR1 in a human monocyte line (real-time RT-PCR); format: cell-based; settings: 150 μM (maximum soluble concentration), 1 hour pre-incubation; MonoMac6 cells stimulated with LPS 100 ng/ml for 20 hours
Procedure: The capacity of compound 1 to inhibit the expression of CX3CR1 by lipopolysaccharide (LPS)-stimulated MonoMac6 cells was evaluated. The cells were placed in 96-well plates at a concentration of 50 000 cells/well. The compound was tested at the maximum soluble concentration given in Table 3 (in the range 30-300 μM) and incubated for 1 hour. The cells were then stimulated with LPS (100 ng/ml) for 20 hours.
as §1, with “CX3CR1” for “MCP-1”, “NM_001337.3).” for “NM_002982.3).”
The results obtained, expressed as a percentage of inhibition, are collated in Table 3 below.

| SMILES | melting point | % inhibition of LPS-induced expression of MCP-1 (specific mRNA) (MCP-1 [1]) | inhibition at 150 µM (MCP-1 [2]) | % inhibition of LPS-induced expression of CX3CR1 (specific mRNA) (CX3CR1) |
| --- | --- | --- | --- | --- |
| NCC(O)c1nn(Cc2ccccc2)c2ccccc12 (stereo not shown) [Compound 1, 2-amino-1-(1-benzyl-1H-indazol-3-yl)ethanol] | 126 °C (dec.) | 64% | 73% | 96% |
| CCNCC(O)c1nn(Cc2ccccc2)c2ccccc12 (stereo not shown) [Compound 2, 1-(1-benzyl-1H-indazol-3-yl)-2-(ethylamino)ethanol] | – | 53% | 67% | 85% |
